{"source": "paper PMC6474902", "about": "“Examination of novel 4-aminoquinoline derivatives designed and synthesized by a hybrid pharmacophore approach to enhance their anticancer activities” (Scientific Reports, 2019)", "assay_type_in_all_cases": "cell-based, human", "key": {"MCF7 cells [1]": {"system": "MCF7 cells", "assay": "LysoTracker Red staining of lysosomal volume", "details": "5 μM, 48 h", "method": "Since the structure of compound 13 contains the main scaffold of CQ, we examined whether cells treated with compound 13 also results an increase in the lysosomal volume.\nFigure 7 Lysosomal volumes are increased in MCF7 cells treated with compound 13. Lysomes were visualized by treating MCF7 cells with lysoTracker Red for 48 h in the absence (Sham) or presence of 5 μM compound 13. The nuclei of cells in rows a and c were visualized by staining with DRAQ5. Note that rows a, c and e are enlarged images.\nLysoTracker Red sDND-99 staining was carried out as recommended by the manufacturer (Molecular Probes, Eugene, OR). Briefly, cells grown on a cover slip were incubated in 50 nM LysoTracker Red DND-99 in serum-free RPMI-1640 medium for 30 min and then rinsed once with serum-free medium. The cells were washed three times with ice-cold medium, incubated in fresh medium for 45 min at 37 °C, and then washed once with fresh medium. Subsequently, the cells were examined by fluorescence microscopy using two filters (for green and red images) sequentially. Merging the two color images was done using Northern Eclipse software."}, "HeLa": {"system": "HeLa", "assay": "Combination with bortezomib, cell death", "details": "48 h post-treatment; BTZ 6 nM, compound 13 0.75 µM, alone or combined"}, "[2]": {"system": "Cdk1, Cdc25C, Wee1 in HeLa S3 cells", "assay": "Western blot of G2-M-G1 regulators after nocodazole release", "details": "10 µM", "method": "To gain a better understanding about the molecular mechanism of compound 13 on antigrowth/cell-killing, HeLa S3 cells synchronized at G1/S by double thymidine treatment (DT) (Fig. 4b) were released into complete medium for 6 h, at which time most cells are at late S-G2/M phase (Fig. 4c). The cells were then maintained for additional 6 h in the absence (Fig. 4d) or presence of 10 μM compound 13 (Fig. 4e). More than 62% of cells progressed into G1 of the next cell cycle in the sham control (Fig. 4d). […] Since the level of securin is low, cell cycle is likely arrested prior to the chromatin separation stage in the presence of compound 13.\nFigure 5 Compound 13-treated cells are arrested at prometa-metaphase through the inactivation of Cdk1. HeLa S3 cells were synchronized at G2/M phase by incubating in 50 ng/ml nocodazole (noco) for 18 h. The cells were then released into complete medium at time 0 h in the absence (Sham) or presence of 10 µM compound 13. Samples were then taken at the indicated times post-nocodazole. […] (b) Cdk1 may be inactivated by the combination of a high level of Wee1 kinase and inactivation of Cdc25C. The relative intensity of band signals are quantified by densitometry and presented the results in Supplementary Fig. S3.\nWestern blot and densitometry were carried out as we described previously[29],[30]."}, "HeLa S3 cells": {"system": "HeLa S3 cells", "assay": "Mitotic spindle/centrosome morphology by confocal microscopy", "details": "5 μM, 6 h after nocodazole synchronization", "excerpt": "To gain further insight into the cellular mechanism involved in the cell cycle arrest, we examined cell morphology in the context of mitotic progress. […] Many of these cells are apparently arrested at the spindle checkpoint stage. Even those cells undergo cell division (probably after prolonged arrest) often segregated with uneven cell sizes (arrows in Fig. 6a).\nFigure 6 Compound 13 causes the formation of multiple spindle poles and uneven segregation. (a) HeLa S3 cells were synchronized at G2/M by nocodazole, followed by incubation for 6 h in drug-free medium in the absence (Sham control) or presence of 5 μM of compound 13. Note the presence of uneven cell sizes (arrows) which were likely generated as a result of nondisjuctional chromosome segregation during mitosis. […] In contrast, the untreated control sample contains very few cells with abnormal spindles.\nAll immunocytochemistry experiments were visualized by confocal microscopy using a Zeiss 510 Meta laser scanning microscope (Carl Zeiss) equipped with a 63× objective lens. Three lasers were utilized for excitation with the following band pass filter settings used for detection: Argon 488 nm (band pass 505–530), HeNe 543 nm (long pass 560) and 633 nm (long pass 650). All images were captured and analyzed using LSM 510 software included with the microscope (LSM Image Examiner, Carl Zeiss)."}, "MCF7 cells [3]": {"system": "MCF7 cells", "assay": "Cell killing by flow cytometry, asynchronous cells", "details": "2.7 μM, 48 h", "experimental": "Asynchronous MCF7 cells were incubated for 48 h in the absence (Sham control) or presence of compound 13 at 2.7 or 8.0 µM.\nCells (2.0 × 10^6) were harvested by centrifugation at 1,000 rpm on a bench-top centrifuge for 5 min, followed by fixation with ice-cold ethanol (70%) for 30 min to overnight at −20 °C[13]. The ethanol was then removed by centrifugation, and cells were resuspended in 1 × PBS solution, followed by centrifuge. The cell pellet was than stained with propidium iodide (PI) master mix (100 μg/mL RNase A, 100 μg/mL PI, 0.3% Nonidet P-40 and 0.1% sodium citrate in distilled water) for 30 min at 37 °C. DNA content was measured using a Beckmann Coulter Cytomics FC500 (Beckman Coulter, Fullerton, CA), and the proportion of cell populations in G0/G1, S, and G2/M phases of cell cycle was calculated on the basis of DNA distribution histograms using CXP software."}}, "note": "Where “and” joins values, the source holds several entries; their conditions need not be identical. Equal values may be shown once."}
{"smiles": "O=[N+]([O-])c1ccc(S(=O)(=O)N2CCN(c3ccnc4cc(Cl)ccc34)CC2)c([N+](=O)[O-])c1", "note": "[Compound 13, 7-Chloro-4-(4-(2,4-dinitrophenylsulfonyl)piperazin-1-yl)quinoline]", "values": [{"measurement": "lysosomal volume", "setting": "MCF7 cells [1]", "value": "substantial increase in lysosomal volume"}, {"measurement": "cell death", "setting": "HeLa", "value": "neither 6 nM BTZ nor 0.75 µM of compound 13 resulted in substantial HeLa cell death"}, {"measurement": "Cdc25C phosphatase activity status", "setting": "[2]; 2–3 h post-nocodazole", "value": "almost completely inactive"}, {"measurement": "phosphorylation of Thr161 and Tyr15 on Cdk1", "setting": "[2]; 2–3 h post-nocodazole", "value": "highly phosphorylated"}, {"measurement": "Wee1 activity status", "setting": "[2]; 3 h post-nocodazole", "value": "very active"}, {"measurement": "mitotic cells with multiple centrosomes / multiple spindle phenotypes", "setting": "HeLa S3 cells", "value": "44% and 44.4%"}, {"measurement": "cell killing", "setting": "MCF7 cells [3]", "value": "effectively killed MCF7 cells"}]}
